Data published in PubChem BioAssay AID256 (DTP/NCI, 2004).
Where “and” joins values, the source holds several entries; their conditions need not be identical. Equal entries are not always repeated. Inconclusive results and toxic doses are left out. How the source made its calls: active means survival T/C of 150% or more; inactive means T/C below 125% in these data.

Test system: CD2F1 mice, L1210 leukemia ip, survival T/C
Assay: NCI In Vivo Anticancer Drug Screen. Data for tumor model L1210 Leukemia (intraperitoneal) in CD2F1 (CDF1) mice
Conditions: higher = longer survival
Summary of the method: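 Implant tumor; dose compound or vehicle; measure endpoint in both groups; report treated divided by control.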

[1] = endpoint: mean survival time, dose: 100.0 mg/kg/injection, schedule: Q04DX002 (ip), vehicle: saline with Tween-80
[2] = endpoint: mean survival time, dose: 200.0 mg/kg/injection, schedule: Q04DX002 (ip), vehicle: saline with Tween-80
[3] = endpoint: mean survival time, dose: 400.0 mg/kg/injection, schedule: Q04DX002 (ip), vehicle: saline with Tween-80
[4] = endpoint: mean survival time, dose: 25.0 mg/kg/injection, schedule: Q01DX005 (ip), vehicle: water
[5] = endpoint: mean survival time, dose: 50.0 mg/kg/injection, schedule: Q01DX005 (ip), vehicle: water
[6] = endpoint: mean survival time, dose: 100.0 mg/kg/injection, schedule: Q01DX005 (ip), vehicle: water
[7] = endpoint: mean survival time, dose: 100.0 mg/kg/injection, schedule: Q01DX009 (ip), vehicle: saline with Tween-80
[8] = endpoint: mean survival time, dose: 100.0 mg/kg/injection, schedule: Q04DX003 (ip), vehicle: saline with Tween-80
[9] = endpoint: mean survival time, dose: 200.0 mg/kg/injection, schedule: Q01DX009 (ip), vehicle: saline with Tween-80
[10] = endpoint: mean survival time, dose: 200.0 mg/kg/injection, schedule: Q04DX003 (ip), vehicle: saline with Tween-80
[11] = endpoint: mean survival time, dose: 400.0 mg/kg/injection, schedule: Q01DX009 (ip), vehicle: saline with Tween-80
[12] = endpoint: mean survival time, dose: 400.0 mg/kg/injection, schedule: Q04DX003 (ip), vehicle: saline with Tween-80
[13] = endpoint: mean survival time, dose: 100.0 mg/kg/injection, schedule: Q01DX001 (ip), vehicle: saline with Tween-80
[14] = endpoint: mean survival time, dose: 200.0 mg/kg/injection, schedule: Q01DX001 (ip), vehicle: saline with Tween-80
[15] = endpoint: mean survival time, dose: 400.0 mg/kg/injection, schedule: Q01DX001 (ip), vehicle: saline with Tween-80
[16] = endpoint: mean survival time, dose: 25.0 mg/kg/injection, schedule: Q01DX009 (ip), vehicle: saline
[17] = endpoint: mean survival time, dose: 50.0 mg/kg/injection, schedule: Q01DX009 (ip), vehicle: saline

Measured: T/C

O=c1[nH]c(=S)nc2nc[nH]n12
inactive: endpoint: mean survival time, dose: 12.5 mg/kg/injection, schedule: Q01DX001 (ip), vehicle: carboxymethylcellulose (CMC) 97 % of control | endpoint: mean survival time, dose: 25.0 mg/kg/injection, schedule: Q01DX001 (ip), vehicle: carboxymethylcellulose (CMC) 100 % of control | endpoint: mean survival time, dose: 50.0 mg/kg/injection, schedule: Q01DX001 (ip), vehicle: carboxymethylcellulose (CMC) 104 % of control | endpoint: mean survival time, dose: 100.0 mg/kg/injection, schedule: Q01DX001 (ip), vehicle: carboxymethylcellulose (CMC) 97 % of control | endpoint: mean survival time, dose: 200.0 mg/kg/injection, schedule: Q01DX001 (ip), vehicle: carboxymethylcellulose (CMC) 97 % of control

CN(C)C(=O)C(O)C1CCCCC1 (stereo not given)
inactive: [1] 94 % of control | [2] 94 % of control | [3] 94 % of control

O=c1[nH]c(=S)ccn1C1OC(COP(=O)(O)O)C(O)C1O (stereo not given)
inactive: endpoint: mean survival time, dose: 12.5 mg/kg/injection, schedule: Q01DX005 (ip), vehicle: water 98 % of control | [4] 103 % of control | [5] 103 % of control | [6] 103 % of control | endpoint: mean survival time, dose: 200.0 mg/kg/injection, schedule: Q01DX005 (ip), vehicle: water 103 % of control

Clc1nc(Cl)nc(-c2cn(-c3ccccc3)c3ccccc23)n1
inactive: [7] 95 % of control | [8] 89 % of control | [9] 95 % of control | [10] 97 % of control | [11] 96 % of control | [12] 98 % of control

O=C(OCc1ccccc1)C(Cl)(Cl)Cl
inactive: [8] 107 % of control | [10] 103 % of control | [12] 96 % of control

CC1(C)Nc2cc3c(cc2-n2cccc21)oc1ccccc13
inactive: endpoint: median survival time, dose: 50.0 mg/kg/injection, schedule: Q01DX005 (ip), vehicle: DMSO 98 % of control | endpoint: median survival time, dose: 100.0 mg/kg/injection, schedule: Q01DX005 (ip), vehicle: DMSO 103 % of control | endpoint: median survival time, dose: 200.0 mg/kg/injection, schedule: Q01DX005 (ip), vehicle: DMSO 100 % of control | endpoint: median survival time, dose: 400.0 mg/kg/injection, schedule: Q01DX005 (ip), vehicle: DMSO 101 % of control | endpoint: median survival time, dose: 800.0 mg/kg/injection, schedule: Q01DX005 (ip), vehicle: DMSO 103 % of control

CC1CC2C3(C1)CC(C(=O)OC3=O)C2(C)C (stereo not given)
inactive: endpoint: mean survival time, dose: 75.0 mg/kg/injection, schedule: Q01DX001 (ip), vehicle: other 94 % of control | endpoint: mean survival time, dose: 150.0 mg/kg/injection, schedule: Q01DX001 (ip), vehicle: other 92 % of control | endpoint: mean survival time, dose: 300.0 mg/kg/injection, schedule: Q01DX001 (ip), vehicle: other 92 % of control

CCC(CN(C)C)C(=O)c1ccccc1 (stereo not given)
inactive: endpoint: mean survival time, dose: 100.0 mg/kg/injection, schedule: Q04DX003 (ip), vehicle: saline 91 % of control | [2] 86 % of control | endpoint: mean survival time, dose: 200.0 mg/kg/injection, schedule: Q04DX003 (ip), vehicle: saline 95 % of control

COC(=O)C(C(=O)OC)C(Br)(C(=O)OC)C(=O)OC
inactive: [7] 98 % of control | [8] 91 % of control | [9] 103 % of control | [10] 91 % of control | [12] 95 % of control

c1ccc(CN2CCC(Nc3ccccc3)(c3nnnn3C3CCCCC3)CC2)cc1
inactive: [13] 95 % of control | [14] 96 % of control | [15] 90 % of control

C=CN(C)OC
inactive: endpoint: mean survival time, dose: 100.0 mg/kg/injection, schedule: Q01DX001 (ip), vehicle: saline 100 % of control

CC1CCCNC1 (stereo not given)
inactive: [8] 97 % of control | [12] 93 % of control

C[n+]1ccc(Nc2ccc(NC(=O)c3ccc(Nc4ccnc5ccc([N+](=O)[O-])cc45)cc3[N+](=O)[O-])cc2)cc1
inactive: [13] 96 % of control | [14] 95 % of control | [15] 93 % of control

O=C(O)CC1C(=O)OC2C3COC(=O)c4cc(O)c(O)c(O)c4-c4c(cc(O)c(O)c4O)C(=O)OC2C(OC(=O)c2cc(O)c(O)c4c2C1C(O)C(=O)O4)C(OC(=O)c1cc(O)c(O)c(O)c1)O3 (stereo not given)
inactive: endpoint: median survival time, dose: 3.12 mg/kg/injection, schedule: Q01DX009 (ip), vehicle: saline 102 % of control | endpoint: median survival time, dose: 6.25 mg/kg/injection, schedule: Q01DX009 (ip), vehicle: saline 98 % of control | endpoint: median survival time, dose: 12.5 mg/kg/injection, schedule: Q01DX009 (ip), vehicle: saline 101 % of control | endpoint: median survival time, dose: 25.0 mg/kg/injection, schedule: Q01DX009 (ip), vehicle: saline 98 % of control | endpoint: median survival time, dose: 50.0 mg/kg/injection, schedule: Q01DX009 (ip), vehicle: saline 100 % of control

CC(=O)Oc1cc(C(C)(C)C)c(OC(C)=O)c(N=[N+]=[N-])c1C(C)(C)C
inactive: [8] 96 % of control | [10] 101 % of control | [12] 96 % of control

CC(=O)NC1=CC(=O)C(C)=CC1=O
inactive: endpoint: mean survival time, dose: 5.0 mg/kg/injection, schedule: Q01DX001 (ip), vehicle: saline 98 % of control | endpoint: mean survival time, dose: 10.0 mg/kg/injection, schedule: Q01DX001 (ip), vehicle: saline 98 % of control

CC(c1ccccc1)n1cncc1C(=O)O (stereo not given)
inactive: [13] 106 % of control | [14] 97 % of control | [15] 95 % of control

CC1CN(Cc2ccccc2O)CC(C)N1 (stereo not given)
inactive: [4] 96 % of control | [5] 94 % of control | [6] 94 % of control

COC(=O)/C=C/C(=O)NC(N)=O
inactive: endpoint: mean survival time, dose: 6.25 mg/kg/injection, schedule: Q04DX003 (ip), vehicle: saline 91 % of control | endpoint: mean survival time, dose: 12.5 mg/kg/injection, schedule: Q04DX003 (ip), vehicle: saline 113 % of control | endpoint: mean survival time, dose: 25.0 mg/kg/injection, schedule: Q04DX003 (ip), vehicle: saline 100 % of control

COc1cc2ccc(CC(N)=O)cc2cc1OC
inactive: [7] 100 % of control | [9] 97 % of control | [11] 97 % of control

Nc1ncnc2c1ncn2CCC(=O)O
inactive: [13] 94 % of control | [1] 105 % of control | [14] 92 % of control | [2] 97 % of control | [15] 90 % of control | [3] 105 % of control

O=C1OC(c2ccccc2)(c2ccccc2)Cc2ccccc21
inactive: [7] 98 % of control | [9] 102 % of control | [11] 102 % of control

CCCCOP(=O)(NCCOC)OCCCC
inactive: [8] 101 % of control | [10] 100 % of control | [12] 103 % of control

CCOC(=O)c1cnc(SCc2ccccc2Cl)nc1N1CC1
inactive: endpoint: mean survival time, dose: 28.05 mg/kg/injection, schedule: Q01DX009 (ip), vehicle: saline with Tween-80 115 % of control

C=C(Br)CNC(=O)OC
inactive: endpoint: mean survival time, dose: 12.5 mg/kg/injection, schedule: Q01DX009 (ip), vehicle: saline 102 % of control | [16] 104 % of control | [17] 112 % of control | [8] 96 % of control

CCCC(CCC)(CNC(C)=O)C1CCCCC1
inactive: endpoint: mean survival time, dose: 75.0 mg/kg/injection, schedule: Q01DX001 (ip), vehicle: saline 98 % of control | endpoint: mean survival time, dose: 150.0 mg/kg/injection, schedule: Q01DX001 (ip), vehicle: saline 88 % of control | endpoint: mean survival time, dose: 300.0 mg/kg/injection, schedule: Q01DX001 (ip), vehicle: saline 87 % of control

COC(=O)c1cc(NC(C)=O)ccc1S(=O)(=O)c1ccc(NC(C)=O)cc1C(=O)OC
inactive: [8] 101 % of control | [10] 101 % of control | [12] 97 % of control

CC(=O)c1ccc[n+](Cc2ccc([N+](=O)[O-])cc2)c1
inactive: [16] 117 % of control | [17] 109 % of control | endpoint: mean survival time, dose: 100.0 mg/kg/injection, schedule: Q01DX009 (ip), vehicle: saline 108 % of control

CN(C)N=Nc1ccccc1C(=O)NNC(N)=S
inactive: endpoint: mean survival time, dose: 18.75 mg/kg/injection, schedule: Q01DX009 (ip), vehicle: Klucel (hydroxypropylcellulose) (HPC) 98 % of control and 103 % of control | endpoint: mean survival time, dose: 37.5 mg/kg/injection, schedule: Q01DX009 (ip), vehicle: Klucel (hydroxypropylcellulose) (HPC) 121 % of control and 101 % of control | endpoint: mean survival time, dose: 75.0 mg/kg/injection, schedule: Q01DX009 (ip), vehicle: Klucel (hydroxypropylcellulose) (HPC) 107 % of control and 109 % of control | endpoint: mean survival time, dose: 150.0 mg/kg/injection, schedule: Q01DX009 (ip), vehicle: Klucel (hydroxypropylcellulose) (HPC) 115 % of control and 116 % of control | endpoint: mean survival time, dose: 300.0 mg/kg/injection, schedule: Q01DX009 (ip), vehicle: Klucel (hydroxypropylcellulose) (HPC) 104 % of control and 107 % of control

NC(N)=NO
inactive: endpoint: mean survival time, dose: 25.0 mg/kg/injection, schedule: Q01DX009 (ip), vehicle: water 113 % of control | endpoint: mean survival time, dose: 50.0 mg/kg/injection, schedule: Q01DX009 (ip), vehicle: water 124 % of control | endpoint: mean survival time, dose: 200.0 mg/kg/injection, schedule: Q01DX009 (ip), vehicle: water 117 % of control | endpoint: mean survival time, dose: 300.0 mg/kg/injection, schedule: Q01DX009 (ip), vehicle: water 116 % of control | endpoint: mean survival time, dose: 500.0 mg/kg/injection, schedule: Q01DX009 (ip), vehicle: water 124 % of control
